The format of series [1] is physicochemical. As to conditions: pH 2.7. Here is the method:
The log P values were measured according to EEC directive 79/831 Annex V.A8 by HPLC (High Performance Liquid Chromatography) on reversed-phase columns (C 18), using the methods below: [α] The LC-MS determination in the acidic range is carried out at pH 2.7 using the mobile phases 0.1% aqueous formic acid and acetonitrile (contains 0.1% formic acid), linear gradient from 10% acetonitrile to 95% acetonitrile

The subject of a further series is Fusarium graminearum. Kind of series: microbe, parasite or virus in culture. Format: cell-based. To be noted: 168 h, read-out: inhibition of DON/AcDON production.
The next series deals with Fusarium proliferatum. Kind of series: microbe, parasite or virus in culture. To be noted: 120 h, read-out: inhibition of fumonisin FB1 production. It counts as cell-based.
Series [2] deals with Setaria viridis (green foxtail). Kind of series: Phytoregulatory pre-emergence action, SETVI. Format: in vivo. To be noted: 320 g of a.i./ha, visual assessment after approx. 3 weeks. Here is the method: (§1) Phytoregulatory Pre-Emergence Action Seeds of monocotyledonous or dicotyledonous crop plants are placed in wood-fibre pots in sandy loam and covered with soil. […] After the treatment, the pots are placed in a greenhouse and kept under good growth conditions for the test plants. The visual assessment of the suppression of growth in the test plants is carried out after a trial period of approx. 3 weeks by comparison with untreated controls (phytoregulatory activity in percent: 100% activity=maximum inhibition of plant growth, 0% activity=plant growth like that of an untreated control.)

The test system of series [3] is Viola tricolor (wild pansy). Kind of series: Phytoregulatory pre-emergence action, VIOTR. It counts as in vivo. As to conditions: 320 g of a.i./ha, visual assessment after approx. 3 weeks. As to the method: as §1
In series [4] the test system is Abuthilon theophrasti (velvetleaf). Briefly: Phytoregulatory pre-emergence action, ABUTH. It counts as in vivo. To be noted: 320 g of a.i./ha, visual assessment after approx. 3 weeks. As to the method:
as §1

The subject of another series is Brassica napus (rape). Briefly: Phytoregulatory pre-emergence action, BRSNW. As to conditions: 320 g of a.i./ha, visual assessment after approx. 3 weeks. It counts as in vivo. As to the method: as §1
In series [5] the test system is Triticum aestivum (common wheat). Kind of series: Phytoregulatory pre-emergence action, TRZAS. Format: in vivo. As to conditions: 320 g of a.i./ha, visual assessment after approx. 3 weeks. As to the method: as §1
For another series, the system named is Phakopsora pachyrhizi. Kind of series: Phakopsora test (soya bean)/protective. Format: in vivo, Phakopsora pachyrhizi on soya bean. As to conditions: 250 ppm, protective, evaluation 11 days after inoculation.
The test system of another series is Cochliobolus miyabeanus. Kind of series: Cochliobolus test (rice)/protective. As to conditions: 500 ppm active compound, protective, evaluation 7 days after inoculation. Format: in vivo, Cochliobolus miyabeanus on rice.
Another series has as its system Pyricularia oryzae. It counts as in vivo, Pyricularia oryzae on rice. To be noted: 500 ppm active compound, protective, rice, evaluation 7 days after inoculation.
A further series relates to Rhizoctonia solani. Kind of series: Rhizoctonia test (rice)/protective. It counts as in vivo, Rhizoctonia solani on rice. As to conditions: 500 ppm active compound, protective, evaluation 4 days after inoculation. As to the method: Rhizoctonia Test (Rice)/Protective [table] To produce a suitable preparation of active compound, 1 part by weight of active compound is mixed with the stated amount of solvent, and the concentrate is diluted with water and the stated amount of emulsifier to the desired concentration. To test for protective activity, young rice plants are sprayed with the preparation of active compound at the stated application rate. 1 day after the treatment, the plants are inoculated with hyphae of Rhizoctonia solani. The plants are then placed in a greenhouse at a relative atmospheric humidity of 100% and a temperature of 25° C.

As to `CC1(C(O)(COc2ccc(Br)c(F)c2F)Cn2cncn2)CC1` (stereo not drawn) [Compound 44], the logP result in series [1] is “logP 2.95 ^[a], [M]^+ = 390/391”.

Take `CC(C)(C)C(O)(COc1ccc(Br)c(F)c1F)c1cncnc1` (stereo not drawn) [Compound 13]: the inhibition at 50 µM with Fusarium graminearum and with Fusarium proliferatum was greater than 80% in each case.

Consider `CC(C)(C)C(O)(COc1ccc(Cl)cc1Cl)c1cncnc1` (stereo not drawn) [EP-A 0 028 755, Example 5, reference compound], for which the “Inhibition of the growth of useful or harmful plants in %, SETVI” value in series [2] was found to be 80%. For the same compound, the “Inhibition of the growth of useful or harmful plants in %, VIOTR” value in series [3] is 90%. For the same compound, the “Inhibition of the growth of useful or harmful plants in %, ABUTH” value in series [4] was 40%. Also, the “Inhibition of the growth of useful or harmful plants in %, BRSNW” value in the series with Brassica napus (rape) is 60%. In series [5], the “Inhibition of the growth of useful or harmful plants in %, TRZAS” value came out at 40%.

As for `Cc1cc(OCC(O)(Cn2cncn2)C2(C)CC2)ccc1Br` (stereo not drawn) [Compound 48], the logP entry in series [1] was “logP 3.1 ^[a], [M]^+ = 368/369”.

As to `CC(C)(C)C(O)(COc1c(F)cc(Br)cc1Cl)Cn1cncn1` (stereo not drawn) [Compound 28], in series [1], the logP entry was “logP 3.76 ^[a], [M]^+ =407.9/411”.

As to `Cc1cc(OCC(O)(Cn2cncn2)C(C)(C)C)cc(C)c1Br` (stereo not drawn) [Compound 23], the logP entry in series [1] is “logP 3.85 ^[a], [M]^+ = 384/386”.

For the compound `CC(C)(C)C(O)(COc1ccc(Br)cc1Cl)Cn1cncn1` (stereo not drawn) [Compound 26], the logP result in series [1] was “logP 3.59 ^[a], [M]^+ = 389.9/393”.

Turning to `CC(C)(C)C(O)(COc1ccc(Br)c(F)c1F)Cn1cncn1` (stereo not drawn) [Compound 34], the logP result in [1] is “logP 3.29 ^[a], [M]^+ = 392/394”.

Regarding `Cc1cc(OCC(O)(Cn2cncn2)C2(C)CC2)c(C)cc1I` (stereo not drawn) [Compound 45], in series [1], the logP result was “logP 3.76 ^[a], [M]^+ = 428/430”.

As to `CC(C)(C)C(O)(COc1cc(F)c(Br)cc1F)Cn1cncn1` (stereo not drawn) [Compound 29], in series [1], the logP entry is “logP 3.21 ^[a], [M]^+ = 392/394”.

Compound `CC(C)(C)C(O)(COc1ccc(Br)cc1F)Cn1cncn1` (stereo not drawn) [Compound 8] displayed an efficacy with Phakopsora pachyrhizi of no less than 80%.

`COc1cc(Br)ccc1OCC(O)(Cn1cncn1)C(C)(C)C` (stereo not drawn) [Compound 20]: the logP result in [1] was “logP 3.09 ^[a], [M]^+ = 386/388”.

Regarding `Cc1cc(Br)ccc1OCC(O)(c1cncnc1)C(C)(C)C` (stereo not drawn) [Compound 12], the “Inhibition of the growth of useful or harmful plants in %, SETVI” value in series [2] amounted to 90%. The inhibition at 50 µM in the series on Fusarium graminearum and in the series on Fusarium proliferatum was greater than 80% each time. The “Inhibition of the growth of useful or harmful plants in %, VIOTR” value in series [3] was 90%. In addition, in series [4], the “Inhibition of the growth of useful or harmful plants in %, ABUTH” value is reported as 80%. Also, the efficacy in the series with Cochliobolus miyabeanus, with Pyricularia oryzae and with Rhizoctonia solani was no less than 80% in each case. Besides, the “Inhibition of the growth of useful or harmful plants in %, BRSNW” value in the series on Brassica napus (rape) worked out at 60%. For the same compound, the “Inhibition of the growth of useful or harmful plants in %, TRZAS” value in [5] is listed as 50%.

For `CC(C)(C)C(O)(COc1c(Cl)cc(Br)cc1Cl)Cn1cncn1` (stereo not drawn) [Compound 21], the logP result in [1] was “logP 4.04 ^[a], [M]^+ = 423.9/426”.

With `CC(C)(C)C(O)(COc1ccc(Br)c(OC(F)(F)F)c1)Cn1cncn1` (stereo not drawn) [Compound 35], the logP entry in series [1] was “logP 3.72^[a], [M]^+ = 440/441”.

For `COc1cc(OCC(O)(Cn2cncn2)C(C)(C)C)ccc1Br` (stereo not drawn) [Compound 27], the logP result in series [1] was “logP 2.92 ^[a], [M]^+ = 386/388”.

As for `CC(C)(C)C(O)(COc1c(F)cc(Br)cc1F)Cn1cncn1` (stereo not drawn) [Compound 31], in [1], the logP result was “logP 3.37 ^[a], [M]^+ = 392/394”.

For `COc1cc(OCC(O)(Cn2cncn2)C2(C)CC2)ccc1Br` (stereo not drawn) [Compound 42], in series [1], the logP entry is “logP 2.67 ^[a], [M]^+ = 384/386”.

For the compound `CC1(C(O)(COc2ccc(Br)cc2Cl)Cn2cncn2)CC1` (stereo not drawn) [Compound 41], the logP result in series [1] was “logP 3.22 ^[a], [M]^+ = 388/391”.

Regarding `CC(C)(C)C(O)(COc1ccc(Br)c(C(F)(F)F)c1)Cn1cncn1` (stereo not drawn) [Compound 32], the logP entry in series [1] is “logP 3.59 ^[a], [M]^+ = 424/426”.

As for `Cc1cc(Br)ccc1OCC(O)(Cn1cncn1)C(C)(C)C` (stereo not drawn) [Compound 22], the logP entry in series [1] was “logP 3.5 ^[a], [M]^+ = 370/372”.

On to `Cc1cc(Br)cc(Cl)c1OCC(O)(Cn1cncn1)C(C)(C)C` (stereo not drawn) [Compound 25], for which the logP result in series [1] is “logP 3.99 ^[a], [M]^+ = 403.9/407”.

Regarding `Cc1cc(I)cc(C)c1OCC(O)(Cn1cncn1)C(C)(C)C` (stereo not drawn) [Compound 38], the logP entry in series [1] is “logP 4.04 ^[a], [M]^+ = 430/432”.

With `CC(C)(C)C(O)(COc1ccc(Br)c(F)c1)Cn1cncn1` (stereo not drawn) [Compound 30], the logP entry in [1] was “logP 3.13 ^[a], [M]^+ = 374/376”.

For `Cc1cc(OCC(O)(Cn2cncn2)C(C)(C)C)ccc1Br` (stereo not drawn) [Compound 19], the logP entry in series [1] was “logP 3.41 ^[a], [M]^+ = 370/372”.

Turning to `CC1(C(O)(COc2cc(F)c(Br)c(F)c2)Cn2cncn2)CC1` (stereo not drawn) [Compound 43], the logP result in series [1] is “logP 2.95 ^[a], [M]^+ = 390/391”.

For `CC(C)(C)C(O)(COc1cc(F)c(Br)c(F)c1)Cn1cncn1` (stereo not drawn) [Compound 33], the logP entry in [1] is “logP 3.25 ^[a], [M]^+ = 392/394”.

For `Cc1cc(I)ccc1OCC(O)(Cn1cncn1)C1(C)CC1` (stereo not drawn) [Compound 47], the logP result in series [1] is “logP 3.37 ^[a], [M]^+ = 414/416”.

For `Cc1cc(Br)cc(C)c1OCC(O)(Cn1cncn1)C(C)(C)C` (stereo not drawn) [Compound 24], the logP result in series [1] was “logP 3.85 ^[a], [M]^+ = 384/386”.

On to `Cc1cc(OCC(O)(Cn2cncn2)C2(C)CC2)cc(C)c1Br` (stereo not drawn) [Compound 39], for which, in series [1], the logP result is “logP 3.5 ^[a], [M]^+ = 382/384”.

Consider `Cc1cc(OCC(O)(Cn2cncn2)C(C)(C)C)cc(C)c1I` (stereo not drawn) [Compound 37], for which, in [1], the logP entry was “logP 4.04 ^[a], [M]^+ = 430/432”.

Turning to `Cc1cc(Br)cc(Cl)c1OCC(O)(Cn1cncn1)C1(C)CC1` (stereo not drawn) [Compound 40], the logP entry in series [1] is “logP 3.68 ^[a], [M]^+ = 402/405”.

Take `Cc1cc(OCC(O)(Cn2cncn2)C(C)(C)C)c(C)cc1I` (stereo not drawn) [Compound 36]: in [1], the logP result was “logP 4.15 ^[a], [M]^+ = 430/432”.

Turning to `Cc1cc(OCC(O)(Cn2cncn2)C2(C)CC2)cc(C)c1I` (stereo not drawn) [Compound 46], the logP entry in series [1] is “logP 3.68 ^[a], [M]^+ = 428/430”.

For the origin of these results see patent publication US9187431B2, “Substituted phenyl(oxy/thio)alkanol derivatives” (Bayer Intellectual Property GMBH, priority 2009, dated 2015).
